What was measured:
salivary amylase [1] = biological target: T1, salivary amylase (Homo sapiens, UniProt P0DUB6); test: Immunoinhibition by MABs, salivary amylase, oligosaccharide substrates; type: biochemical; details: salivary isoenzyme, 20 U/I (G5, G7 substrates) or 600 U/I (G3 substrates), 100% = no MAB; for % activity with MAB 66C7 / % activity with MAB 88E8: MAB 10 mg/L
T1 construct: purchased Sigma (St. Louis, Mo.)
T1 sequence (P0DUB6 16-511): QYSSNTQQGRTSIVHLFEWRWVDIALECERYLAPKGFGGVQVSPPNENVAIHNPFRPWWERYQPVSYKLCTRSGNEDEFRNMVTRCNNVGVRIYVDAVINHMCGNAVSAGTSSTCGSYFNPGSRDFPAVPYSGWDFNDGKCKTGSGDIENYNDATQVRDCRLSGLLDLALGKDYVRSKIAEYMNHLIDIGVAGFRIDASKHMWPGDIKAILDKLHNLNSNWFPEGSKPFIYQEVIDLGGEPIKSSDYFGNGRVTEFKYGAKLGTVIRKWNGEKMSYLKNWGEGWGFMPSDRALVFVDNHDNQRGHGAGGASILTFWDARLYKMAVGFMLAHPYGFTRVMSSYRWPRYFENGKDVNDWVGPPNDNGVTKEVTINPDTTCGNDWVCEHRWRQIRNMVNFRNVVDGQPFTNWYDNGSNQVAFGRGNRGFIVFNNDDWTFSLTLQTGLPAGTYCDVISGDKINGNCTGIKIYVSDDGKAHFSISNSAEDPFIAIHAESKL
Procedure: (§1) Amylase assays using oligosaccharide substrates were automated using a Cobas Fara analyzer (Roche, Basel, Switzerland). Unless indicated, assay temperature was 37° C., and absorbance changes were measured at 405 nm every minute over a 20 minute period. Assay buffer was either 52.5 mmol/L 4-(2-hydroxyethyl)-1-piperazine-ethanesulfonic acid (HEPES) buffer, pH 7.15, 87 mmol/L sodium chloride, 12.6 mmol/L magnesium chloride, 0.075 mmol/L calcium chloride (HEPES buffer) or 50 mmol/L MES, pH 6.0, 350 mmol/L sodium chloride, 6 mmol/L calcium acetate, 900 mmol/L KSCN (MES buffer). Amylases were diluted into assay buffer containing 1 mg/mL rabbit albumin. Final reaction volumes were 200 μL and consisted of 3 solutions, R1, R2, and R3. […] Depending upon the assay, R2 and R3 contained either amylase or substrate. R1 and R2 solutions were mixed for 10 seconds prior to the addition of R3. For immunoinhibition studies, antibodies were preincubated with amylase (R2) for 30 minutes at room temperature prior to the addition of substrate (R3). Unless indicated, final concentrations of MABs were 10 mg/L. Reaction blanks were determined by measuring the absorbance of substrate or enzyme alone at 405 nm. When EtG7pNP or mPEG-EtG7pNP were used as substrates, α-glucosidase was included in the blank measurement. Differences between the test samples and reagent blanks were determined. Activity of stock solutions of amylase was based on activity measured with a Hitachi 917 analyzer using a Roche kit (Cat. No 1876473) (Indianapolis, Ind.) which uses EtG7pNP as the substrate. For Km determinations, 4 or 5 different substrate concentrations (0.05 mmol/L to 6 mmol/L) with salivary (4-20 U/L) or pancreatic (4-40 U/L) amylase were used.
When both MABs were used, MAB 88E8 concentrations were varied in the presence of 10 mg/L MAB 66C7. At an antibody concentration of 10 mg/L, MAB 88E8 inhibits 98% of salivary amylase activity in HEPES buffer and 34% of salivary amylase activity in MES buffer. MAB 66C7 increases salivary amylase activity in HEPES buffer and has no effect on salivary amylase activity in MES buffer. Using a mixture of MABs 88E8 and 66C7 at concentrations of […], >99% of salivary amylase activity is inhibited in HEPES buffer and 73% of salivary amylase activity is inhibited in MES buffer. When the pH of the MES buffer was increased from 6.0 to 6.5 and the concentration of KSCN was decreased from 900 mmol/L to 300 mmol/L, >97% of salivary amylase activity was inhibited by MAB 88E8.

salivary amylase [2] = biological target: T1, salivary amylase; test: Extent of cleavage of substrates by excess salivary amylase; type: biochemical
Procedure: Substrates were diluted into HEPES buffer and absorbances were recorded between 250 nm and 500 nm. To determine the maximum amount of substrate that could be cleaved with amylase, substrates were incubated with 60 units/mL of salivary amylase. When EtG7pNP and mPEG-EtG7pNP were used, 4 units/mL of α-glucosidase were included in the incubation.
To determine the maximal amount of mPEG-coupled and uncoupled substrate that could be cleaved by amylase, substrates were incubated with excess salivary amylase and the amount of free chromophore released was determined by measuring absorptions between 250 nm and 500 nm during amylase digestion. […] Incubations were monitored until endpoints of reactions were approached. α-Glucosidase was included in the incubation when EtG7pNP and mPEG-EtG7pNP were used as substrates.

[3] = test system: pancreatic and salivary amylase; test: Lag phase of amylase reaction; type: biochemical, human; details: purified pancreatic and salivary amylase; Cobas Fara analyzer
Procedure: as §1, with “For immunoinhibition studies, antibodies were preincubated with amylase (R2) for 30 minutes at room temperature prior to the addition of substrate (R3).” left out, “When EtG7pNP or mPEG-EtG7pNP were used as substrates, α-glucosidase was included in the blank measurement.” left out, “For Km determinations, 4 or 5 different substrate concentrations (0.05 mmol/L to 6 mmol/L) with salivary (4-20 U/L) or pancreatic (4-40 U/L) amylase were used.” left out

pancreatic amylase [4] = biological target: T2, pancreatic amylase (Homo sapiens, UniProt P04746); test: Amylase assay, Km determination, pancreatic amylase; type: biochemical
T2 construct: purchased Scripps Laboratories (San Diego, Calif.)
T2 sequence (P04746 16-511): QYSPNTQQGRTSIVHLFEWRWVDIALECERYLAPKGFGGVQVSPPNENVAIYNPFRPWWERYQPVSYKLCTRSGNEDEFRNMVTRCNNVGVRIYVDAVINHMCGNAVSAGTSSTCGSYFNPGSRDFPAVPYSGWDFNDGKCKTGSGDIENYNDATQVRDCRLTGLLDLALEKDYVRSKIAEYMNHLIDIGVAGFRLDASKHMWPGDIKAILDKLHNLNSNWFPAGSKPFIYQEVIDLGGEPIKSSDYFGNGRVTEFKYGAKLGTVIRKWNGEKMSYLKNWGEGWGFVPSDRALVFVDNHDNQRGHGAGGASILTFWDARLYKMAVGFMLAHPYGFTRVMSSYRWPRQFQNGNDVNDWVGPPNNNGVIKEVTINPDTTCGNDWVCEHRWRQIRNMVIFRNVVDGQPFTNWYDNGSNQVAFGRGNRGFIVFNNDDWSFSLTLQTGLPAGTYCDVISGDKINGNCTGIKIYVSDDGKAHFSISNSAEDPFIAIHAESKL
Procedure: as §1, with “Assay buffer was either 52.5 mmol/L 4-(2-hydroxyethyl)-1-piperazine-ethanesulfonic acid (HEPES) buffer, pH 7.15, 87 mmol/L sodium chloride, 12.6 mmol/L magnesium chloride, 0.075 mmol/L calcium chloride (HEPES buffer) or 50 mmol/L MES, pH 6.0, 350 mmol/L sodium chloride, 6 mmol/L calcium acetate, 900 mmol/L KSCN (MES buffer).” left out

pancreatic amylase [5] = biological target: T2, pancreatic amylase; test: Immunoinhibition by MABs, pancreatic amylase, oligosaccharide substrates; type: biochemical; details: pancreatic isoenzyme, 40 U/I (G5, G7 substrates) or 400 U/I (G3 substrates), 100% = no MAB; for % activity with MAB 66C7 / % activity with MAB 88E8: MAB 10 mg/L
Procedure: as §1

salivary amylase [6] = biological target: T1, salivary amylase; test: Amylase assay, Km determination, salivary amylase; type: biochemical
Procedure: as §1

pancreatic amylase [7] = biological target: T2, pancreatic amylase; test: Immunoinhibition by polyclonal antiamylase antisera, pancreatic amylase; type: biochemical
Procedure: (§2) Amylase assays using oligosaccharide substrates were automated using a Cobas Fara analyzer (Roche, Basel, Switzerland). Unless indicated, assay temperature was 37° C., and absorbance changes were measured at 405 nm every minute over a 20 minute period. Assay buffer was either 52.5 mmol/L 4-(2-hydroxyethyl)-1-piperazine-ethanesulfonic acid (HEPES) buffer, pH 7.15, 87 mmol/L sodium chloride, 12.6 mmol/L magnesium chloride, 0.075 mmol/L calcium chloride (HEPES buffer) or 50 mmol/L MES, pH 6.0, 350 mmol/L sodium chloride, 6 mmol/L calcium acetate, 900 mmol/L KSCN (MES buffer). Amylases were diluted into assay buffer containing 1 mg/mL rabbit albumin. […] Unless indicated, final concentrations of MABs were 10 mg/L. Reaction blanks were determined by measuring the absorbance of substrate or enzyme alone at 405 nm. […] Differences between the test samples and reagent blanks were determined. Activity of stock solutions of amylase was based on activity measured with a Hitachi 917 analyzer using a Roche kit (Cat. No 1876473) (Indianapolis, Ind.) which uses EtG7pNP as the substrate. […]
(§3) The effects of two different polyclonal antiamylase immunoglobulin preparations on salivary and pancreatic amylase activity using mPEG-coupled and uncoupled substrates were tested. […] 100% amylase activity was determined in the absence of any antibody.

salivary amylase [8] = biological target: T1, salivary amylase; test: Immunoinhibition by polyclonal antiamylase antisera, salivary amylase; type: biochemical
Procedure: as §2, §3

[9] = 37° C., pH 6.5 in MES buffer containing 300 mM KSCN

Substrate cleaved by salivary amylase and α-glucosidase (salivary amylase [2]; digestion for 60 minutes) [%] | Fold lower concentration of antibody inhibiting cleavage than for G3ClpNP (pancreatic amylase [7]) [fold] | Fold lower concentration of antibody inhibiting cleavage than for G3ClpNP (salivary amylase [8]) [fold] | Structure (SMILES) | % activity with MAB 88E8 + 66C7 (salivary amylase [1]) [%] | % activity with MAB 66C7 (salivary amylase [1]) [%] | % activity with MAB 88E8 (salivary amylase [1]) [%] | CNP released by salivary amylase (salivary amylase [2]; excess salivary amylase, 40 minutes at room temperature) [%] | Lag phase, time to reach maximal rates [3] | Km (pancreatic amylase [4]; 25° C., HEPES buffer pH 7.15) [µM] | Km (pancreatic amylase [4]; 37° C., HEPES buffer pH 7.15) [µM] | Km (pancreatic amylase [4]; [9]) [µM] | % activity with MAB 88E8 + 66C7 (pancreatic amylase [5]) [%] | % activity with MAB 66C7 (pancreatic amylase [5]) [%] | % activity with MAB 88E8 (pancreatic amylase [5]) [%] | Km (salivary amylase [6]; 25° C., HEPES buffer pH 7.15) [µM] | Km (salivary amylase [6]; 37° C., HEPES buffer pH 7.15) [µM] | Km (salivary amylase [6]; [9]) [µM]
– | – | – | O=[N+]([O-])c1ccc(O[C@H]2O[C@H](CO)[C@@H](O[C@H]3O[C@H](CO)[C@@H](O[C@H]4O[C@H](CO)[C@@H](O)[C@H](O)[C@H]4O)[C@H](O)[C@H]3O)[C@H](O)[C@H]2O)c(Cl)c1 [Substrate G3ClpNP, 2-chloro-p-nitrophenol-α-D-maltotrioside] | 1 | 104 | 3 | ~90 | little or no lag phase | 1300 | 2200 | 610 | 103 | 117 | 103 | 4600 | 6900 | 2000
~90 | ~3 | > 50 | CC1OC[C@H]2O[C@H](O[C@H]3[C@H](O)[C@@H](O)[C@@H](O[C@H]4[C@H](O)[C@@H](O)[C@@H](O[C@H]5[C@H](O)[C@@H](O)[C@@H](O[C@H]6[C@H](O)[C@@H](O)[C@@H](O[C@H]7[C@H](O)[C@@H](O)[C@@H](O[C@H]8[C@H](O)[C@@H](O)[C@@H](Oc9ccc([N+](=O)[O-])cc9)O[C@@H]8CO)O[C@@H]7CO)O[C@@H]6CO)O[C@@H]5CO)O[C@@H]4CO)O[C@@H]3CO)[C@H](O)[C@@H](O)[C@@H]2O1 (stereo partly drawn) [EtG7pNP, 4,6-O-ethylidene p-nitrophenyl-α-D-maltoheptaoside] | 2 | 105 | 6 | – | – | – | 170 | – | 96 | 105 | 96 | – | 130 | –
